Data published in PubChem BioAssay (NCI).
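The concentration for 50% growth inhibition is given as GI50. Definition used: TGI = concentration required for complete inhibition of growth.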

Tests used:
Test in all cases: growth of human tumour cells (NCI), 384-well format
KM12 colon = system: KM12 colon
TK-10 renal = system: TK-10 renal
T-47D breast = system: T-47D breast
RXF 393 renal = system: RXF 393 renal
SK-MEL-28 melanoma = system: SK-MEL-28 melanoma
HL-60(TB) leukemia = system: HL-60(TB) leukemia
A498 renal = system: A498 renal
M14 melanoma = system: M14 melanoma
SF-268 CNS = system: SF-268 CNS
HOP-62 NSCLC = system: HOP-62 NSCLC
MOLT-4 leukemia = system: MOLT-4 leukemia
MCF7 breast = system: MCF7 breast
SR leukemia = system: SR leukemia
SNB-75 CNS = system: SNB-75 CNS
NCI-H522 lung = system: NCI-H522 lung
NCI-H322M lung = system: NCI-H322M lung
SN12C renal = system: SN12C renal
RPMI-8226 leukemia = system: RPMI-8226 leukemia
NCI-H460 NSCLC = system: NCI-H460 NSCLC
SK-MEL-2 melanoma = system: SK-MEL-2 melanoma
MALME-3M melanoma = system: MALME-3M melanoma
MDA-MB-231 breast = system: MDA-MB-231 breast
BT-549 breast = system: BT-549 breast
OVCAR-4 ovarian = system: OVCAR-4 ovarian
HT29 colon = system: HT29 colon
DU-145 prostate = system: DU-145 prostate
MDA-MB-468 breast = system: MDA-MB-468 breast
COLO 205 colon = system: COLO 205 colon
NCI-H226 lung = system: NCI-H226 lung
SF-539 CNS = system: SF-539 CNS
OVCAR-5 ovarian = system: OVCAR-5 ovarian
U251 glioblastoma = system: U251 glioblastoma
786-0 renal = system: 786-0 renal
UACC-257 melanoma = system: UACC-257 melanoma
IGROV1 ovarian = system: IGROV1 ovarian
SNB-19 CNS = system: SNB-19 CNS
MDA-MB-435 melanoma = system: MDA-MB-435 melanoma
SF-295 CNS = system: SF-295 CNS
UACC-62 melanoma = system: UACC-62 melanoma
HOP-92 NSCLC = system: HOP-92 NSCLC
PC-3 prostate = system: PC-3 prostate
OVCAR-8 ovarian = system: OVCAR-8 ovarian
CCRF-CEM leukemia = system: CCRF-CEM leukemia
NCI/ADR-RES ovarian = system: NCI/ADR-RES ovarian
SK-OV-3 ovarian = system: SK-OV-3 ovarian
A549 NSCLC = system: A549 NSCLC
ACHN renal = system: ACHN renal
EKVX NSCLC = system: EKVX NSCLC
SW-620 colon = system: SW-620 colon
SK-MEL-5 melanoma = system: SK-MEL-5 melanoma
HCC-2998 colon = system: HCC-2998 colon
CAKI-1 renal = system: CAKI-1 renal
HCT-15 colon = system: HCT-15 colon
NCI-H23 lung = system: NCI-H23 lung
HS 578T breast = system: HS 578T breast
OVCAR-3 ovarian = system: OVCAR-3 ovarian

With `O=c1ccn(C2OC(CO)C(O)C2F)c(=O)[nH]1` (configuration not stated) the GI50 (KM12 colon) was greater than 100 µM, the TGI (KM12 colon) was greater than 100 µM and the GI50 (TK-10 renal) was greater than 100 µM. It also gave a TGI (TK-10 renal) greater than 100 µM, a GI50 (T-47D breast) greater than 100 µM and a TGI (T-47D breast) greater than 100 µM. It also gave a GI50 (RXF 393 renal) greater than 100 µM, a TGI (RXF 393 renal) greater than 100 µM and a GI50 (SK-MEL-28 melanoma) greater than 100 µM. It also gave a TGI (SK-MEL-28 melanoma) greater than 100 µM, a GI50 (HL-60(TB) leukemia) greater than 100 µM and a TGI (HL-60(TB) leukemia) greater than 100 µM. The GI50 (A498 renal) was greater than 100 µM, the TGI (A498 renal) was greater than 100 µM and the GI50 (M14 melanoma) was greater than 100 µM. For the same compound, the TGI (M14 melanoma) was greater than 100 µM, the GI50 (SF-268 CNS) was greater than 100 µM and the TGI (SF-268 CNS) was greater than 100 µM. It also gave a GI50 (HOP-62 NSCLC) greater than 100 µM, a TGI (HOP-62 NSCLC) greater than 100 µM and a GI50 (MOLT-4 leukemia) of 53.1 µM. It also gave a TGI (MOLT-4 leukemia) greater than 100 µM, a GI50 (MCF7 breast) greater than 100 µM and a TGI (MCF7 breast) greater than 100 µM. For the same compound, the GI50 (SR leukemia) was greater than 100 µM, the TGI (SR leukemia) was greater than 100 µM and the GI50 (SNB-75 CNS) was greater than 100 µM. It also gave a TGI (SNB-75 CNS) greater than 100 µM, a GI50 (NCI-H522 lung) greater than 100 µM and a TGI (NCI-H522 lung) greater than 100 µM. It also gave a GI50 (NCI-H322M lung) greater than 100 µM, a TGI (NCI-H322M lung) greater than 100 µM and a GI50 (SN12C renal) greater than 100 µM. For the same compound, the TGI (SN12C renal) was greater than 100 µM, the GI50 (RPMI-8226 leukemia) was greater than 100 µM and the TGI (RPMI-8226 leukemia) was greater than 100 µM. The GI50 (NCI-H460 NSCLC) was greater than 100 µM, the TGI (NCI-H460 NSCLC) was greater than 100 µM and the GI50 (SK-MEL-2 melanoma) was greater than 100 µM. The TGI (SK-MEL-2 melanoma) was greater than 100 µM, the GI50 (MALME-3M melanoma) was greater than 100 µM and the TGI (MALME-3M melanoma) was greater than 100 µM. The GI50 (MDA-MB-231 breast) was greater than 100 µM, the TGI (MDA-MB-231 breast) was greater than 100 µM and the GI50 (BT-549 breast) was greater than 100 µM. For the same compound, the TGI (BT-549 breast) was greater than 100 µM, the GI50 (OVCAR-4 ovarian) was greater than 100 µM and the TGI (OVCAR-4 ovarian) was greater than 100 µM. The GI50 (HT29 colon) was greater than 100 µM, the TGI (HT29 colon) was greater than 100 µM and the GI50 (DU-145 prostate) was greater than 100 µM. For the same compound, the TGI (DU-145 prostate) was greater than 100 µM, the GI50 (MDA-MB-468 breast) was greater than 100 µM and the TGI (MDA-MB-468 breast) was greater than 100 µM. It also gave a GI50 (COLO 205 colon) greater than 100 µM, a TGI (COLO 205 colon) greater than 100 µM and a GI50 (NCI-H226 lung) greater than 100 µM. It also gave a TGI (NCI-H226 lung) greater than 100 µM, a GI50 (SF-539 CNS) greater than 100 µM and a TGI (SF-539 CNS) greater than 100 µM. It also gave a GI50 (OVCAR-5 ovarian) greater than 100 µM, a TGI (OVCAR-5 ovarian) greater than 100 µM and a GI50 (U251 glioblastoma) greater than 100 µM. The TGI (U251 glioblastoma) was greater than 100 µM, the GI50 (786-0 renal) was greater than 100 µM and the TGI (786-0 renal) was greater than 100 µM. For the same compound, the GI50 (UACC-257 melanoma) was greater than 100 µM, the TGI (UACC-257 melanoma) was greater than 100 µM and the GI50 (IGROV1 ovarian) was greater than 100 µM. It also gave a TGI (IGROV1 ovarian) greater than 100 µM, a GI50 (SNB-19 CNS) greater than 100 µM and a TGI (SNB-19 CNS) greater than 100 µM. For the same compound, the GI50 (MDA-MB-435 melanoma) was greater than 100 µM, the TGI (MDA-MB-435 melanoma) was greater than 100 µM and the GI50 (SF-295 CNS) was greater than 100 µM. The TGI (SF-295 CNS) was greater than 100 µM, the GI50 (UACC-62 melanoma) was greater than 100 µM and the TGI (UACC-62 melanoma) was greater than 100 µM. It also gave a GI50 (HOP-92 NSCLC) greater than 100 µM, a TGI (HOP-92 NSCLC) greater than 100 µM and a GI50 (PC-3 prostate) greater than 100 µM. It also gave a TGI (PC-3 prostate) greater than 100 µM, a GI50 (OVCAR-8 ovarian) greater than 100 µM and a TGI (OVCAR-8 ovarian) greater than 100 µM. For the same compound, the GI50 (CCRF-CEM leukemia) was 37.3 µM, the TGI (CCRF-CEM leukemia) was greater than 100 µM and the GI50 (NCI/ADR-RES ovarian) was greater than 100 µM. For the same compound, the TGI (NCI/ADR-RES ovarian) was greater than 100 µM, the GI50 (SK-OV-3 ovarian) was greater than 100 µM and the TGI (SK-OV-3 ovarian) was greater than 100 µM. For the same compound, the GI50 (A549 NSCLC) was greater than 100 µM, the TGI (A549 NSCLC) was greater than 100 µM and the GI50 (ACHN renal) was greater than 100 µM. It also gave a TGI (ACHN renal) greater than 100 µM, a GI50 (EKVX NSCLC) greater than 100 µM and a TGI (EKVX NSCLC) greater than 100 µM. It also gave a GI50 (SW-620 colon) greater than 100 µM, a TGI (SW-620 colon) greater than 100 µM and a GI50 (SK-MEL-5 melanoma) greater than 100 µM. It also gave a TGI (SK-MEL-5 melanoma) greater than 100 µM, a GI50 (HCC-2998 colon) greater than 100 µM and a TGI (HCC-2998 colon) greater than 100 µM. For the same compound, the GI50 (CAKI-1 renal) was greater than 100 µM, the TGI (CAKI-1 renal) was greater than 100 µM and the GI50 (HCT-15 colon) was greater than 100 µM. It also gave a TGI (HCT-15 colon) greater than 100 µM, a GI50 (NCI-H23 lung) greater than 100 µM and a TGI (NCI-H23 lung) greater than 100 µM. It also gave a GI50 (HS 578T breast) greater than 100 µM, a TGI (HS 578T breast) greater than 100 µM and a GI50 (OVCAR-3 ovarian) greater than 100 µM. The TGI (OVCAR-3 ovarian) was greater than 100 µM.
